# From patent US9611485B2, “Polynucleotide and polypeptide sequences associated with herbicide tolerance” (priority 2010, dated 2017)
# Columns and labels:
# [1] = tested on: Soybean (cv. Jack) T0 plants; assay: Saflufenacil foliar spray of transgenic T0 soybean plants, visual injury; format: in vivo, Glycine max; conditions: 3 g/ha foliar spray, 7 days after treatment, 0=no effect, 100=dead plant
# Experimental: Soybean was transformed essentially as described in Li et al. (2007) Plant Mol Biol 65:329-341. Soybean (cv. Jack) embryogenic cultures were transformed by particle bombardment with plant expression vectors using a strong constitutive promoter to control the GM ABCT1 SUS (susceptible allele, SEQ ID NO:125) or GM ABCT1 TOL (resistant allele, SEQ ID NO: 124) genes. Stable transgenic events were tested for presence of the transgene by PCR, but no confirmation of expression was performed. Three clonal plants were produced from each transgenic event.
# These T0 plants were grown to the V2 to V8 growth stage and then sprayed with saflufenacil at a rate of 3 g/ha. All treatments were applied in a spray volume of 280 L/ha. The spray mixture contained acetone, water, glycerin and surfactant. Treated plants were compared to untreated plants of similar genetic background and evaluated for herbicide injury at seven days after treatment. Visual injury was on a scale of 0 to 100% injury (0=no effect to 100=dead plant). Plants are also visually evaluated for agronomic effects such as interveinal and veinal chlorosis, reddening, leaf malformation, necrosis, apical withering/death/regrowth, and whole plant height.
# [2] = tested on: Tobacco (cv. Petite Havana) T0 plants; assay: Saflufenacil foliar spray of transgenic T0 tobacco plants, visual injury; format: in vivo; conditions: 12.5 g/ha spray; for mean visual injury score: tobacco T0 plants carrying the susceptible allele
# Experimental: Tobacco (cv. Petite Havana) was transformed by particle bombardment with plant expression vectors using a strong constitutive promoter to control the GM ABCT1 SUS (susceptible allele, SEQ ID NO: 125) or GM ABCT1 RES (resistant allele, SEQ ID NO: 124) genes using the following protocol: • 1) Weigh 1 mg 0.6 micron gold powder (for 8 shots). Add 1 ml 100% ethanol Sonicate 2 min. Centrifuge at 13,000 rpm×5 sec. Remove Supernatant. Repeat 3 times. • 2) Add 1 ml sterile double-deionized water. Sonicate 2 min. Centrifuge at 13,000 rpm×5 sec. Remove Supernatant. Repeat 2 times. • 3) Add 321 μl sterile water. Vortex and sonicate 2 min. • 4) Add 4 μl of DNA (1 μg/μl concentration) and vortex briefly. • 5) Add 100 μl of 5M CaCl2 and 80 μl of 0.1M Spermidine (14 μl of Spermidine+985.6 μl water prepared freshly). Mix with finger and vortex 2 sec. • 6) Incubate on ice for 1 min. Spin down at 13,000 rpm for 2 sec and remove supernatant. • 7) Add 500 μl of 100% ethanol. Pipette up and down a few times to wash. (It is important to break all big aggregates at this stage). Vortex 2 sec. Spin down at 13,000 rpm for 2 sec and remove supernatant. • 8) Re-suspend in 85 μl of 100% ethanol. Keep on ice. Vortex solution before spreading 10 μl of DNA prep on flying disk. (Sterilize in 100% ethanol for 5-10 min and air dry, also sterilize and air dry 1100 psi rupture disk). • 9) Place tobacco leaf (cv. Petit Havana) abaxial side up in the center of a petri plate containing MS01 medium (MS+B5 vitamins (Phytotechnology M519), Sucrose 30 g/l, agar 8 g/l, BA 2 mg/L, NAA 0.05 mg/L). • 10) Bombard with 28 mm Hg vacuum, position plate at 9 cm (2nd position from bottom), 1100 psi rupture disk. After bombardment, invert leaves so bombarded side and petioles are in contact with medium. • 11) Maintain leaves under 16 hrs/day dim light (<5 μEinstein) for 2-3 days. • 12) Cut leaves into small pieces (0.5 cm×0.5 cm) in MSB-Co (MS+Vit, Glucose 10 g/L, BA 50 mg/L, pH5.2), then blot dry on sterile filter paper and place with bombarded side in contact with the MS01 medium containing hygromycin 25 mg/L under 16 hrs/day light (80-120 μEinstein). When shoots appear, cut and place directly in selection media. • 13) Until shoots appear, change selection medium every 2 weeks. • 14) When entire plantlets are formed (1-2 cm high), leaves are cut into approx. 1-2 mm segments and re-cultured on MS01 medium containing hygromycin 25 mg/L and 8 g/L agar. Subculture to fresh medium every 3 weeks. When new shoots appear, isolate single shoots and transfer onto ½ MS media (M519 2.22 g/L, sucrose 15 g/L, agar 6 g/L).
# Stable transgenic events were tested for presence of the transgene by PCR, and transcription of the genes was confirmed by qRT-PCR. Three clonal plants were produced from each transgenic event; two plants from each event were used for the spray experiment.
# Plants were grown until 3 to 5 expanded true leaves were present and then sprayed with saflufenacil at a rate of 12.5 g/ha. All treatments were applied in a spray volume of 140 L/ha. Ammonium sulfate was included at 1% w/v. Treated plants were compared to untreated plants of similar genetic background and evaluated for herbicide injury at seven and seventeen days after treatment. Visual injury was on a scale of 0 to 100% injury (0=no effect to 100=dead plant).
# [3] = tested on: tobacco T1 seeds and wild type seeds; assay: Germination of tobacco T1 seeds on Gelrite plates containing saflufenacil; format: in vivo
# Experimental: Unsprayed clones of the transgenic tobacco plants described above were grown in a greenhouse until flowering and were allowed to self pollinate. Seeds were harvested and used for further experiments. Transgene insertion copy number was not determined for these plants, but for single copy plants the seeds would be expected to segregate 1homozygous:2hemizygous:1null for the transgene.
# T1 seeds from multiple transgenic events carrying the resistant and susceptible alleles, and wild type seeds, were germinated on 1.5% Gelrite (no nutrients or minerals) plates and kept in a growth chamber at 26° C. under a 16 hr light regime. Plate media contained saflufenacil at concentrations down to 0.45 parts per billion (ppb). […] All seed germinated and grew normally on Gelrite plates lacking saflufenacil.
# [4] = tested on: tobacco T1 seedlings and wild type; assay: Saflufenacil soil drench of tobacco T1 seedlings in pots; format: in vivo; conditions: three days after treatment
# From the text: T1 seeds were sown in four inch pots containing soil and allowed to germinate for five days. At this point, with cotyledons visible above the soil, pots were drenched with 100 mls saflufenacil in water at 0.45 ppb. The solution was applied to soil, avoiding direct contact with plant cotyledons.
compound,measurement,setting,value
CC(C)N(C)S(=O)(=O)NC(=O)c1cc(-n2c(=O)cc(C(F)(F)F)n(C)c2=O)c(F)cc1Cl [saflufenacil],mean visual injury,[1]; soybean cv. Jack T0 plants carrying the resistant allele (GM ABCT1 TOL),72%
same,mean visual injury score,[1]; soybean cv. Jack T0 plants carrying the susceptible allele (GM ABCT1 SUS),59%
same,mean visual injury,[1]; wild type soy plants,84%
same,mean visual injury,"[2]; tobacco T0 plants carrying the resistant allele, seven days after treatment",63%
same,mean visual injury,"[2]; tobacco T0 plants carrying the resistant allele, seventeen days after treatment",46%
same,mean visual injury score,[2]; seven days after treatment,77%
same,mean visual injury score,[2]; seventeen days after treatment,61%
same,mean visual injury,"[2]; transgenic control tobacco plants carrying an unrelated transgene, seven days after treatment",63%
same,mean visual injury,"[2]; transgenic control tobacco plants carrying an unrelated transgene, seventeen days after treatment",53%
same,difference between transgenic seed with either GM ABCT1 allele and wild type seed,[3]; Gelrite plates containing saflufenacil down to 0.45 ppb,No visible difference
same,seed germination and growth,"[3]; plate media at 0.91 ppb and 0.45 ppb, transgenic T1 and wild type tobacco seed",seeds germinated but were bleached and failed to grow
same,seed germination,"[3]; plate media at concentrations above 0.91 ppb, transgenic T1 and wild type tobacco seed",no germination was observed
same,seedling condition,[4]; 100 mls at 0.45 ppb drenched to soil five days after sowing,all seedlings were severely bleached and appeared dead
same,differences between transgenic lines and wild type,[4]; 100 mls at 0.45 ppb soil drench,No visible differences
